Calls of active or inactive are those of the source. The rule behind the calls is not given here.

A short description of series [1]: Antioxidant activity assessed as DPPH radical scavenging activity measured every minute over 45 mins by spectrophotometry. The class given is physicochemical. On the technique in general: The DPPH test is a chemical assay of radical scavenging.
For series [2], the system named is SH-SY5Y. Briefly: Neuroprotective activity in human SH-SY5Y cells assessed as inhibition of 6-OH-DA-induced cytotoxicity at 1 uM compound incubated for 1 hr followed by 24 hrs incubation with 100 uM 6-OH-DA by MTT assay. The class given is functional, cell-based. (In general: Formazan colour is commonly taken as a measure of viable cells.)
The subject of series [3] is SH-SY5Y. Briefly: Neuroprotective activity in human SH-SY5Y cells assessed as inhibition of 6-OH-DA-induced cytotoxicity at 10 uM compound incubated for 1 hr followed by 24 hrs incubation with 100 uM 6-OH-DA by MTT assay. The class given is functional, cell-based.
The subject of series [4] is SH-SY5Y. As to the kind of experiment: Cytotoxicity against human SH-SY5Y cells at 1 and 10 uM after 24 hrs by MTT assay. The class given is cell-based.
A short description of series [5]: Antioxidant activity assessed as ABTS radical scavenging activity by spectrophotometry. The class given is physicochemical.
A short description of series [6]: Antioxidant activity assessed as galvinoxyl radical scavenging activity measured over 30 mins by spectrophotometry. The class given is physicochemical.
Series [7] in a line: Iron chelation activity of compound assessed as [Fe(ferrozine)3]2+ complex formation by spectrophotometry. The class given is physicochemical.

One may read the IC50 as the concentration that gives 50% inhibition. `COc1ccc(/C=C/C=C/C(=O)O)cc1OC`: the IC50 in series [1] is more than 75 µM; in series [5] it was more than 50 µM. Moreover, the inhibition result with SH-SY5Y [2] and in the series on SH-SY5Y [3] was “inactive” throughout. Besides, the Activity result in the series with SH-SY5Y [4] is “Non-toxic”.

With `COc1cc(/C=C/C=C/C(=O)O)ccc1O`, the IC50 in series [1] is 42.5 µM; in series [6], 4.8 µM; in series [5] it was 19.7 µM. Also, the inhibition result in the series with SH-SY5Y [3] was “Active”. In addition, in the series with SH-SY5Y [4], the Activity result is given as “Non-toxic”.

As to `Cc1c(C)c2c(c(C)c1O)CCC(C)(C(=O)O)O2` (racemic) [TROLOX], the IC50 in series [1] was 30.8 µM; in series [6], 3.4 µM; in series [5], 2.8 µM.

In the case of `O=C(O)/C=C/c1ccc(O)c(O)c1` [CAFFEIC ACID], the results for the IC50 in series [1], in series [6] and in series [5] were 21.7 µM, 27 µM and 17.5 µM, respectively. Further, the outcome in series [7] was Active.

Turning to `O=C(O)/C=C/C=C/c1ccc(O)c(O)c1` [DEMETHYLENATED PIPERIC ACID], the figures for the IC50 in series [1], in series [6] and in series [5] were 18.2 µM, 2.5 µM and 11.1 µM, respectively. Further, the inhibition entry in the series on SH-SY5Y [2] and in the series on SH-SY5Y [3] was “Active” throughout. Also, the Activity entry in series [7] is on record as “Active”; in the series with SH-SY5Y [4] it was “Non-toxic”.

Turning to `COc1cc(/C=C/C(=O)O)ccc1O` [FERULATE], the values for the IC50 in series [1], in series [6] and in series [5] were 49.3 µM, 26.5 µM and 23.9 µM, respectively.

Source of the values: ChEMBL document CHEMBL3739425, “Exploring cinnamic acid scaffold: development of promising neuroprotective lipophilic antioxidants” (Medchemcomm, 2015).
